Key:
[1] = target: T1, ERRγ (Homo sapiens, UniProt P62508); conditions: background statement; cited from earlier work
T1 sequence (P62508 1-458): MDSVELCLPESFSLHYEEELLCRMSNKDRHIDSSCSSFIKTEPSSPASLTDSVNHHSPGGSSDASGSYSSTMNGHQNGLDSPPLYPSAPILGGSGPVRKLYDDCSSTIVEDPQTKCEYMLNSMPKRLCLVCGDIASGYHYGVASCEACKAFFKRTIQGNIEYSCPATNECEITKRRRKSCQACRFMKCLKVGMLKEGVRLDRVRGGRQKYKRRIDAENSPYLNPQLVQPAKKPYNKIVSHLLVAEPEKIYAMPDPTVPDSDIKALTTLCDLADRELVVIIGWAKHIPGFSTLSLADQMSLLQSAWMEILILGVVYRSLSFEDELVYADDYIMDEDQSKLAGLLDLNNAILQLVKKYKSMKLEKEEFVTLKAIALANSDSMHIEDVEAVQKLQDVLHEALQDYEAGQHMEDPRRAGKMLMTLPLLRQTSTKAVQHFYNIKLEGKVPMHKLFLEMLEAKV

[2] = target: T2, HRHN-GAL (yeast GAL4 DNA binding domain without receptor sequences) (Saccharomyces cerevisiae, UniProt P04386); test: GAL4 reporter transactivation assay in CV-1 cells, control vector without receptor; format: cell-based, monkey
T2 construct: expressed in transfected cells; host or cells: CV-1

[3] = target: T3, GAL-hERRa (human ERRα ligand binding domain fused to GAL4 DNA binding domain) (Homo sapiens, UniProt P11474); test: GAL4 reporter transactivation assay in CV-1 cells, GAL-hERRa; format: cell-based
T3 construct: expressed in transfected cells; host or cells: CV-1
T3 sequence (P11474 193-421 limits assumed): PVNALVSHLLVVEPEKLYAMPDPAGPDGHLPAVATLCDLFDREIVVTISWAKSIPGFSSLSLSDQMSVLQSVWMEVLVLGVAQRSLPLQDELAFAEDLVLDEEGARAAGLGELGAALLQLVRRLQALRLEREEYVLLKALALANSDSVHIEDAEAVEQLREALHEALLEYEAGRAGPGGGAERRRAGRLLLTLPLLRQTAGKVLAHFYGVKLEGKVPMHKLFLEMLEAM

[4] = target: T4, GAL-L-hERRb (human ERRβ ligand binding domain fused to GAL4 DNA binding domain) (Homo sapiens, UniProt O95718); test: GAL4 reporter transactivation assay in CV-1 cells, GAL-L-hERRb; format: cell-based
T4 construct: expressed in transfected cells; host or cells: CV-1
T4 sequence (O95718 208-432 limits assumed): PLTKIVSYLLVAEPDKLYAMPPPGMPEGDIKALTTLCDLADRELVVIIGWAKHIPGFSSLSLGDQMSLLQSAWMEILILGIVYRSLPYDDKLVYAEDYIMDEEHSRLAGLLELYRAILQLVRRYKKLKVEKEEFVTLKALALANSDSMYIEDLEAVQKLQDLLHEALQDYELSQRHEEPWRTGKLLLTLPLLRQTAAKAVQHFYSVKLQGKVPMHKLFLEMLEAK

[5] = target: T5, GAL-mERRg (mouse ERRγ ligand binding domain fused to GAL4 DNA binding domain) (Mus musculus, UniProt P62509); test: GAL4 reporter transactivation assay in CV-1 cells, GAL-mERRg; format: cell-based
T5 construct: expressed in transfected cells; host or cells: CV-1
T5 sequence (P62509 233-457 limits assumed): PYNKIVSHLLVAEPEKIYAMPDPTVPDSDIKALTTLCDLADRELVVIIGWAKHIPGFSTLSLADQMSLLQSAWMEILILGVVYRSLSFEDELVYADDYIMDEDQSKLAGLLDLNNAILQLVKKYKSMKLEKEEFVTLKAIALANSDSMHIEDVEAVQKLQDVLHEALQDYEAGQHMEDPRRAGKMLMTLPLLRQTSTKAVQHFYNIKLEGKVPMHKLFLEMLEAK

[6] = target: T6, human ERα (Homo sapiens, UniProt P03372); test: ERE-TK-luc reporter transactivation assay in CV-1 cells, full-length hERa; format: cell-based
T6 construct: Human ERα and ERβ were examined as full-length proteins using an estrogen receptor responsive reporter construct; expressed in transfected cells; host or cells: CV-1
T6 sequence (P03372 1-595): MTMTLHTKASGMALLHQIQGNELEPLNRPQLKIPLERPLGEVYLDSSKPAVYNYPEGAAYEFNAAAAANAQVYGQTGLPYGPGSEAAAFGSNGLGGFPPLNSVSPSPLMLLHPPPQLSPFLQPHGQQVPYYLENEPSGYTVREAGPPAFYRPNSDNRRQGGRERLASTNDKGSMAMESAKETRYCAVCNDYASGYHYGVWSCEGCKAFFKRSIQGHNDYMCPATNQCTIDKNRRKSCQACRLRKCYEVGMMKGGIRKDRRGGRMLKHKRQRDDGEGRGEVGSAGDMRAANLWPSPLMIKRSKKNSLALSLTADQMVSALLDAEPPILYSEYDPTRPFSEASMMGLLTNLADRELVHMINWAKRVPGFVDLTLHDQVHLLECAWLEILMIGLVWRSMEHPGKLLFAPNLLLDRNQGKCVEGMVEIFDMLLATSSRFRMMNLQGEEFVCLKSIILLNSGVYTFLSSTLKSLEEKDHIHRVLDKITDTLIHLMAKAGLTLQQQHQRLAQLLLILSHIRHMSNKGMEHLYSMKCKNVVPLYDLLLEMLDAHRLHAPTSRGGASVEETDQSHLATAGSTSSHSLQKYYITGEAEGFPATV
Method: (§1) Human ERα and ERβ were examined as full-length proteins using an estrogen receptor responsive reporter construct.
(§2) Suitable reporter gene constructs are well known to skilled workers in the fields of biochemistry and molecular biology. […] Other vectors known in the art can be used in the methods of the present invention.
(§3) CV-1 cells for the activation assays were grown in Dulbecco's modified Eagle's medium supplemented with 10% resin charcoal-stripped fetal bovine serum, 50 U/ml penicillin G and 50 μg/ml streptomycin sulfate (DMEM-FBS) at 37° C. in 5% CO2. One day prior to transfection, cells were plated to 50-80% confluence using phenol red free DMEM-FBS.

[7] = target: T7, human ERβ (Homo sapiens, UniProt Q92731); test: ERE-TK-luc reporter transactivation assay in CV-1 cells, full-length hERb; format: cell-based
T7 construct: Human ERα and ERβ were examined as full-length proteins using an estrogen receptor responsive reporter construct; expressed in transfected cells; host or cells: CV-1
Method: as §1, §2, §3

[8] = CV-1, reporter 0.42:vector 0.00875:PGC-1a 0.035, 30 μM
[9] = CV-1, reporter 0.42:vector 0.00875, no PGC-1a, 30 μM

T2 sequence (P04386 1-147): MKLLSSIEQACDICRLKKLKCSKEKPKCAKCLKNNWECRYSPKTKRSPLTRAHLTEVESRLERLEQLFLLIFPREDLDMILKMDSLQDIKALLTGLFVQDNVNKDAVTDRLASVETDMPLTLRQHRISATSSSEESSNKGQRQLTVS
T7 sequence (Q92731 whole entry): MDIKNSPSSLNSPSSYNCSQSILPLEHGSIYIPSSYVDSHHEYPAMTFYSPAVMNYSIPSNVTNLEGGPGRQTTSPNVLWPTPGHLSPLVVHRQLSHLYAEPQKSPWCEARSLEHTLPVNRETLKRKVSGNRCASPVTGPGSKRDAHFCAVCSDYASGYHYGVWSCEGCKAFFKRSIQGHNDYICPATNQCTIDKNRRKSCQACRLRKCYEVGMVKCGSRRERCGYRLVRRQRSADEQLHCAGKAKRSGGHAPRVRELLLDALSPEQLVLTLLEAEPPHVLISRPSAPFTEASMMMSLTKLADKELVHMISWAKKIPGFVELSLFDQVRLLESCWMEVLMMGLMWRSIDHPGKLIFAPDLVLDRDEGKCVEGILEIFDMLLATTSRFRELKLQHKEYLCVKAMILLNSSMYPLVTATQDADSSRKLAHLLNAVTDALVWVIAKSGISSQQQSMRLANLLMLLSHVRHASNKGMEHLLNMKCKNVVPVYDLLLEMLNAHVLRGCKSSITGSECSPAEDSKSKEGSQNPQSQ

With `Cc1ccc(C=NNC(=O)c2ccc(O)cc2)s1` [DY166, 4-Hydroxy-benzoic acid (5-methyl-thiophen-2-ylmethylene)-hydrazide] the melting point was 215.7 °C.
For `O=C(NN=Cc1cccc(C(F)(F)F)c1Cl)c1ccc(O)cc1` [DY165, 4-Hydroxy-benzoic acid (2-chloro-3-trifluoromethyl-benzylidene)-hydrazide], the melting point was 261.5 °C.
For `O=C(NN=Cc1ccc(C(F)(F)F)c([N+](=O)[O-])c1)c1ccc(O)cc1` [DY170, 4-Hydroxy-benzoic acid (3-nitro-4-trifluoromethyl-benzylidene)-hydrazide], the melting point was 279.6 °C.
`Cc1cc(C=NNC(=O)c2ccc(O)cc2)oc1C` [DY173, 4-Hydroxy-benzoic acid (4,5-dimethyl-furan-2-ylmethylene)-hydrazide] gave a melting point of 251.4 °C.
With `CCc1ccc(C=NNC(=O)c2ccc(O)cc2)o1` [DY175, 4-Hydroxy-benzoic acid (5-ethyl-furan-2-ylmethylene)-hydrazide] the melting point was 60.5 °C.
For `COc1cc(/C=C(\C#N)C(=O)Nc2nnc(C(F)(F)F)s2)ccc1OCc1ccc(C(F)(F)F)cc1C(F)(F)F` [XCT790], the “Activity on ERRγ” value [1] is given as “no activity”.
Work on `Cc1[nH]c(C=NNC(=O)c2ccc(O)cc2)c(C)c1Br` [DY172, 4-Hydroxy-benzoic acid (4-bromo-3,5-dimethyl-1H-pyrrol-2-ylmethylene)-hydrazide] yielded a melting point of 235.4 °C.
For `Oc1nc(Cl)nc(NN=Cc2cc(C(F)(F)F)cc(C(F)(F)F)c2)n1` [DY176, 4-[N′-(3,5-Bis-trifluoromethyl-benzylidene)-hydrazino]-6-chloro-[1,3,5]triazin-2-ol], the melting point was 258.3 °C.
With `CCc1ccc(C=NNC(=O)c2ccc(O)cc2)s1` [DY164, 4-Hydroxy-benzoic acid (5-ethyl-thiophen-2-ylmethylene)-hydrazide] the “Fold activation, HRHN-GAL” value ([2]; reporter 0.42:vector 0.00875, no PGC-1a, 30 μM) was 1.46 fold, the “Fold activation, HRHN-GAL + PGC-1a” value ([2]; reporter 0.42:vector 0.00875:PGC-1a 0.035, 30 μM) was 1.62 fold and the “Fold activation, GAL-hERRa + PGC-1a” value [3, 8] was 2.75 fold. For the same compound, the “Fold activation, GAL-hERRa” value [3, 9] was 1.74 fold, the “Activation of ERRα” value ([3]; in the presence of PGC-1a) was “can activate” and the “Fold activation, GAL-L-hERRb + PGC-1a” value [4, 8] was 2.34 fold. The “Fold activation, GAL-L-hERRb” value [4, 9] was 1.89 fold, the “Activation of ERRβ” value ([4]; in the presence of PGC-1a) was “can activate” and the “Fold activation, GAL-mERRg + PGC-1a” value [5, 8] was 2.45 fold. The “Fold activation, GAL-mERRg” value [5, 9] was 2.10 fold, the “Activation of ERRγ” value ([5]; in the presence of PGC-1a) was “can activate” and the “Fold Activation, ERE-TK-luc, hERa” value ([6]; Table 7, CV-1, drug conc 30 μM) was 1.30 fold. The “Activation of ERa” value ([6]; specificity for ERRs) was “do not activate”, the “Fold Activation, ERE-TK-luc, hERb” value ([7]; Table 7, CV-1, drug conc 30 μM) was 1.74 fold and the “Activation of ERb” value ([7]; specificity for ERRs) was “do not activate”. For the same compound, the melting point was 194.5 °C.
Compound `Cc1cc(C)c(C=NNC(=O)c2ccc(O)cc2)[nH]1` [DY171, 4-Hydroxy-benzoic acid (3,5-dimethyl-1H-pyrrol-2-ylmethylene)-hydrazide] has a melting point of 261.2 °C.
Work on `O=C(NN=Cc1ccc(C(F)(F)F)cc1)c1ccc(O)cc1` [DY168, 4-Hydroxy-benzoic acid (4-trifluoromethyl-benzylidene)-hydrazide] yielded a melting point of 260.5 °C.
